Experimental findings from US20020133832A1, “Model systems for neuordegenerative and cardiovascular disorders” (priority 2000, published 2002) are described below.

What all share (format): in vivo, mouse
The test system of one assay is S1+/− and T1+/− mice. Nature of the assay: Rescue of reduced rearing behavior (rearings/min) in the open field. To be noted: terazosin target dose 0.05 mg/kg body weight/day via drinking water, four weeks, L-DOPA as Sinemet. From the text:
FIG. 6. An Active Open Field Activity System (Harvard Apparatus, Holliston, Mass.) was used to monitor total activity, distance traveled/min and number of rearings/min in age matched NT (▴), W2+/−(▪), S1+/−(●) and T1+/−(▾) and T2+/−(♦) mice. The open field for these experiments was a 16 inch by 16 inch enclosure with infrared beams of light aimed to form grids near the floor and 3 inches above the floor of the enclosure. (A) Total activity, or the total number of beam breaks each minute, was determined in two month old mice for a total time of 15 min. (B) A computer algorithm was used to calculate the distance traveled/min during horizontal ambulation by mice of varying age. (C) The number of rearings/minute was determined by electronically tallying the number of times mice of varying age reared onto their hindlimbs, facilitating a greater than 1 sec beam break in the upper grid (3 inches above the floor of the enclosure). (D) Snapshot of an 11 month old S1+/− mouse showing elongation of the torso caused by sprawling and dragging of the hindlimbs. (E) The ability of terazosin and L-DOPA to rescue the reduced number of rearings/min seen in eighteen month old S1+/− and T1+/− mice was tested by administering a target dose of 0.05 mg terazosin/kg body weight/day via the drinking water. After a four week pretreatment with the drug, the number of rearings/min was determined. All error bars in the Figurere present SEM (n>3) and significance in D was determined using analysis of variance with a two-tailed Student's t test (p<0.05).
Receptor overactivity was inhibited in S1+/− and T1+/− mice via treatment with the α1BAR-specific antagonist terazosin. Animals were treated with the drug at a target dose of 0.05 mg/Kg of body weight/day via the drinking water. […] (FIG. 6E).

The test system of assay [1] is T2+/− mice. Description: Percent seizure activity induced by intraperitoneal injection (IPI) stress. The conditions noted are these: T2 mice at 7 months of age, 0.05 mg/Kg body weight/day via drinking water, 4 weeks, 0.05 mg/kg/day. As for the experimental part:
(§1) FIG. 7. (A) Sequence of seizure behaviors in a 12 month old T2+/− mouse. 1; behavioral arrest. 2; loss of balance and whole body jerking. 3; forelimb flexion. 4; recovery. (B) Comparison of percent seizure activity induced by open field stress in various lines of mice at 12 months of age. […] Percent seizure activity was then calculated by dividing the number of seizure-positive mice by the total number of mice tested. The total number of mice tested for each case is shown above the respective column in the graph. The ability of terazosin to rescue T2+/− mice from the seizure phenotype was tested by administering a target dose of 0.05 mg/kg body weight/day via the drinking water. After a four week pretreatment with the drug, percent seizure activity was determined. (C) Identical experiment to that described in B, except percent seizure activity was determined in lines of mice at seven months of age that were exposed to intraperitoneal injection (IPI) stress. IPI stress was administered to the mice by intraperitoneal injection of […] of sterile 0.9% NaCl.
Seizures seen in response to this intraperitoneal injection stress (IPI stress) resembled the open field stress-induced event in terms of severity, characteristics and duration. […]

Assay [2] relates to T2+/− mice. Nature of the assay: Percent seizure activity induced by open field stress. The conditions noted are these: T2 mice at 12 months of age, 0.05 mg/Kg body weight/day via drinking water, four weeks. On the procedure: as §1
The seizure event seen in W2+/−, S 1+/−, T1+/− and T2+/− mice at twelve months of age was evoked by exposure to the open field (i.e. handling-invoked stress) and was characterized by behavioral arrest, facial twitching, loss of balance, forelimb automatism, whole body jerking and hypersalivation. […]

Entries after “also recorded” stand apart in the source; their conditions may differ.

Turning to `N[C@@H](Cc1ccc(O)c(O)c1)C(=O)O` [L-DOPA], the “rearing behavior (number of rearings/min)” value is on record as “did not improve the locomotor activity” with S1+/− and T1+/− mice (eighteen month old S1+/− mice); “dramatically reversed the rearing deficit” with S1+/− and T1+/− mice (eighteen month old T1+/− mice).
`COc1cc2nc(N3CCN(C(=O)C4CCCO4)CC3)nc(N)c2cc1OC` (stereo not drawn) [terazosin]: the percent seizure activity result is “reduced the number of younger T2+/− mice displaying IPI-induced seizures; also recorded: partially reversed the phenotype” in the assay on T2+/− mice [1] and “partially reversible i.e., fewer events” in the assay on T2+/− mice [2]. For the same compound, the “rearing behavior (number of rearings/min)” value is listed as “partial rescue of the rearing behavior” in the assay with S1+/− and T1+/− mice (eighteen month old S1+/− mice); “partial rescue of the rearing behavior” in the assay with S1+/− and T1+/− mice (eighteen month old T1+/− mice).
